Patent US20250177533A1, “PHOTODYNAMIC THERAPY AND DIAGNOSIS” (RMW CHO Group Limited, priority 2021, published 2025)

Tests used:
[1] = tested on: Human ovarian cancer cell line SKOV3; conditions: 24 h
[2] = tested on: Human ovarian cancer cell line SKOV3; assay: Phototoxicity in SKOV3 cells (660 nm laser or LED, AlamarBlue viability); type: cell-based; conditions: Homo sapiens, SK-OV-3, light or radiation study; SKOV3, 24 h uptake, 660 nm laser 50 mW/cm^2 for 5 mins (15 J/cm^2), viability 24 h later; read-out: Phototoxicity μM (IC90)
Description: All data are shown as mean±SD (where appropriate).
Media was then replaced with fresh media containing AlamarBlue, and % viable cells remaining assessed as above. […] All measurements were made in quadruplicate.

CCC1=C(C)c2cc3[nH]c(cc4nc(c(C)c5cc(C)c(cc1n2)[nH]5)[C@@H](CCC(=O)N(C)CCCO)[C@@H]4C)c(C)c3C(C)OCCCS[C@@H]1O[C@H](CO)[C@@H](O)[C@H](O)[C@H]1O (stereo partly drawn) [Compound 2, phyllochlorin N-3-hydroxypropyl-N-methyl propylamide propyloxythio-D-glucose]
Dark toxicity μM (IC10) [1]: 7.640 µM
IC90 [2]: 0.03 µM

CCC1=C(C)c2cc3[nH]c(cc4nc(c(C)c5cc(C)c(cc1n2)[nH]5)[C@@H](CCC(=O)OC)[C@@H]4C)c(C)c3CO [Compound 3, phyllochlorin 13-hydroxymethyl methyl ester]
Dark toxicity μM (IC10) [1]: 45.720 µM
IC90 [2]: 0.308 µM

CCC1=C(C)c2cc3[nH]c(cc4nc(c(C)c5cc(C)c(cc1n2)[nH]5)[C@@H](CCC(=O)OC)[C@@H]4C)c(C)c3CO[C@@H]1O[C@H](CO)[C@@H](O)[C@H](O)[C@H]1O [Compound 4, phyllochlorin 13-hydroxymethyl-β-D-glucoside ether methyl ester]
Dark toxicity μM (IC10) [1]: 0.775 µM
IC90 [2]: 0.099 µM

CCC1=C(C)c2cc3[nH]c(cc4nc(c(C)c5cc(C)c(cc1n2)[nH]5)[C@@H](CCC(=O)N(C)CCCO)[C@@H]4C)c(C)c3CO[C@@H]1O[C@H](CO)[C@@H](O)[C@H](O)[C@H]1O [Compound 6, phyllochlorin N-3-hydroxypropyl-N-methyl-propylamide 13-hydroxymethyl-β-D-glucoside ether]
Dark toxicity μM (IC10) [1]: 0.528 µM
IC90 [2]: 0.084 µM

CCC1=C(C)c2cc3[nH]c(cc4nc(c(C)c5cc(C)c(cc1n2)[nH]5)[C@@H](CCC(=O)OC)[C@@H]4C)c(C)c3CO[C@@H]1O[C@H](CO)[C@@H](O[C@H]2O[C@H](CO)[C@@H](O)[C@H](O)[C@H]2O)[C@H](O)[C@H]1O [Compound 8, phyllochlorin 13-hydroxymethyl-β-D-maltose ether methyl ester]
Dark toxicity μM (IC10) [1]: 7.442 µM
IC90 [2]: 0.665 µM

CCC1=C(C)c2cc3[nH]c(cc4nc(c(C)c5cc(C)c(cc1n2)[nH]5)[C@@H](CCC(=O)N(C)C[C@H](O)[C@@H](O)[C@H](O)[C@H](O)CO)[C@@H]4C)c(C)c3CO[C@@H]1O[C@H](CO)[C@@H](O)[C@H](O)[C@H]1O [Compound 10, phyllochlorin N-meglumine-propylamide-13-hydroxymethyl-β-D-glucoside ether]
Dark toxicity μM (IC10) [1]: 4.732 µM
IC90 [2]: 1.5 µM

CCC1=C(C)c2cc3[nH]c(cc4nc(c(C)c5cc(C)c(cc1n2)[nH]5)[C@@H](CCC(=O)N(C)CCCO[C@@H]1O[C@H](CO)[C@@H](O)[C@H](O)[C@H]1O)[C@@H]4C)c(C)c3CO[C@@H]1O[C@H](CO)[C@@H](O)[C@H](O)[C@H]1O [Compound 12, phyllochlorin 13-hydroxymethyl-β-D-glucoside ether-β-D-glucosyl-N-methylpropylamide]
Dark toxicity μM (IC10) [1]: 2.466 µM
IC90 [2]: 0.353 µM

CCC1=C(C)c2cc3[nH]c(cc4nc(c(C)c5cc(C)c(cc1n2)[nH]5)[C@@H](CCC(=O)N(CCOCCOCCOC)CCOCCOCCOC)[C@@H]4C)c(C)c3CO [Compound 13, phyllochlorin 13-hydroxymethyl-N,N-bis-PEG3OMe propylamide]
Dark toxicity μM (IC10) [1]: 60.750 µM
IC90 [2]: 0.421 µM

CCC1=C(C)c2cc3[nH]c(cc4nc(c(C)c5cc(C)c(cc1n2)[nH]5)[C@@H](CCC(=O)N(CCOCCOCCOC)CCOCCOCCOC)[C@@H]4C)c(C)c3CO[C@@H]1O[C@H](CO)[C@@H](O)[C@H](O)[C@H]1O [Compound 14, phyllochlorin 13-hydroxymethyl-β-D-glucoside ether-N,N-bis-PEG3OMe propylamide]
Dark toxicity μM (IC10) [1]: 0.626 µM
IC90 [2]: 0.186 µM

CCC1=C(C)c2cc3[nH]c(cc4nc(c(C)c5cc(C)c(cc1n2)[nH]5)[C@@H](CCC(=O)NCCOCCO[C@@H]1O[C@H](CO)[C@@H](O)[C@H](O)[C@H]1O)[C@@H]4C)c(C)c3CO[C@@H]1O[C@H](CO)[C@@H](O)[C@H](O)[C@H]1O [Compound 16, phyllochlorin 13-hydroxymethyl-β-D-glucoside ether-β-D-1-glucose-2-ethoxy-N-ethanamine]
Dark toxicity μM (IC10) [1]: 5.929 µM
IC90 [2]: 1.82 µM

CCC1=C(C)c2cc3[nH]c(cc4nc(c(C)c5cc(C)c(cc1n2)[nH]5)[C@@H](CCC(=O)O)[C@@H]4C)c(C)c3CO [Compound 17, phyllochlorin 13-hydroxymethyl]
Dark toxicity μM (IC10) [1]: 25.000 µM
IC90 [2]: 0.891 µM

CCC1=C(C)c2cc3[nH]c(cc4nc(c(C)c5cc(C)c(cc1n2)[nH]5)[C@@H](CCC(=O)N(C)CCCOCCC[P+](c1ccccc1)(c1ccccc1)c1ccccc1)[C@@H]4C)c(C)c3CO [Compound 18]
Dark toxicity μM (IC10) [1]: 4.393 µM
IC90 [2]: 0.007 µM

CCC1=C(C)c2cc3[nH]c(cc4nc(c(C)c5cc(C)c(cc1n2)[nH]5)[C@@H](CCC(=O)N(C)CCCOCCC[P+](c1ccccc1)(c1ccccc1)c1ccccc1)[C@@H]4C)c(C)c3CO[C@@H]1O[C@H](CO)[C@@H](O)[C@H](O)[C@H]1O [Compound 19]
Dark toxicity μM (IC10) [1]: 0.090 µM
IC90 [2]: 0.018 µM

CCC1=C(C)c2cc3[nH]c(cc4nc(c(C)c5cc(C)c(cc1n2)[nH]5)[C@@H](CCC(=O)OC)[C@@H]4C)c(C)c3C(C)OCCC[n+]1ccccc1 (some centres unmarked) [Compound 20, phyllochlorin methyl ester 3-pyridinium bromide propyl ether]
Dark toxicity μM (IC10) [1]: 1.998 µM
IC90 [2]: 0.003 µM

CCC1=C(C)c2cc3[nH]c(cc4nc(c(C)c5cc(C)c(cc1n2)[nH]5)[C@@H](CCC(=O)OC)[C@@H]4C)c(C)c3C(C)OCCOCC[n+]1ccccc1 (some centres unmarked) [Compound 22, phyllochlorin methyl ester 2-(2-pyridiniumethoxy)ethyl ether chloride]
Dark toxicity μM (IC10) [1]: 2.228 µM
IC90 [2]: 0.004 µM

CCC1=C(C)c2cc3[nH]c(cc4nc(c(C)c5cc(C)c(cc1n2)[nH]5)[C@@H](CCC(=O)OC)[C@@H]4C)c(C)c3C(C)OCCOCC[P+](c1ccccc1)(c1ccccc1)c1ccccc1 (some centres unmarked) [Compound 23, phyllochlorin methyl ester 2-(2-triphenylphosphoniumethoxy)ethyl ether chloride]
Dark toxicity μM (IC10) [1]: 3.086 µM
IC90 [2]: 0.012 µM

CCC1=C(C)c2cc3[nH]c(cc4nc(c(C)c5cc(C)c(cc1n2)[nH]5)[C@@H](CCC(=O)N(C)CCOCCOCCOCCOCCOCCOC)[C@@H]4C)c(C)c3CO [Compound 24, phyllochlorin 13-hydroxymethyl N-methyl-N-3,6,9,12,15,18-hexaoxanonadecyl propylamide]
Dark toxicity μM (IC10) [1]: 41.190 µM
IC90 [2]: 0.503 µM

CCC1=C(C)c2cc3[nH]c(cc4nc(c(C)c5cc(C)c(cc1n2)[nH]5)[C@@H](CCC(=O)N(C)CCOCCOCCOCCOCCOCCOC)[C@@H]4C)c(C)c3CO[C@@H]1O[C@H](CO)[C@@H](O)[C@H](O)[C@H]1O [Compound 25, phyllochlorin 13-hydroxymethyl-β-D-glucoside ether-β-D-glucosel-N-methyl-N-3,6,9,12,15,18-hexaoxanonadecyl propylamide]
Dark toxicity μM (IC10) [1]: 0.279 µM
IC90 [2]: 0.146 µM

CCC1=C(C)c2cc3[nH]c(cc4nc(c(C)c5cc(C)c(cc1n2)[nH]5)[C@@H](CCC(=O)N(C)CCCS[C@@H]1O[C@H](CO)[C@@H](O)[C@H](O)[C@H]1O)[C@@H]4C)c(C)c3C(C)O (stereo partly drawn) [Compound 26, 13-hydroxyethylphyllochlorin-β-D-1-thioglucose-N-methylpropylamide]
Dark toxicity μM (IC10) [1]: 21.550 µM
IC90 [2]: 0.248 µM
